Experimental findings from publication PMC3250956, “Functional characterization and analgesic effects of mixed cannabinoid receptor/T-type channel ligands” (Molecular Pain, 2011) are described below.

The target in one assay is Human CB2 (Homo sapiens, UniProt P34972). Briefly: GTPγ[35S] functional assay, CHO cell membrane extracts. Further details: expressed in transfected cells; host or cells: CHO cells (membrane extracts). The following applies: for Emax: read-out: GTPγ[35S] functional assays Human CB2 Emax. Format: biochemical.
The target of a further assay is T1, rat 5-HT2C (Rattus norvegicus, UniProt P08909).
T1 construct: expressed in transfected cells; host or cells: HEK293 (Flp-In system, pcDNA5.0FRT)
T1 sequence (P08909 33-460): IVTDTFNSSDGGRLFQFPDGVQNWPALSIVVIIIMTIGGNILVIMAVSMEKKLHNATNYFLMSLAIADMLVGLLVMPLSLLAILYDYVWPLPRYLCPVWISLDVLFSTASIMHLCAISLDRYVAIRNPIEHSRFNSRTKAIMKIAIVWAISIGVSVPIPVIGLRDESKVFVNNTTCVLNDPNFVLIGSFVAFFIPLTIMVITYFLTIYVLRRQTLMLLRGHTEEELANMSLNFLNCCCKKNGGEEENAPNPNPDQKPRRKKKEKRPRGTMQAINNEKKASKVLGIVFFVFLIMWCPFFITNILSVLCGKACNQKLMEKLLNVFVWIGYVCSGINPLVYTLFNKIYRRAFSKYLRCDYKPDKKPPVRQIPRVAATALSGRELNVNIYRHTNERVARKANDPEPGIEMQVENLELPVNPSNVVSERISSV
The experiment in a line: Primary radioligand competitive binding assay, [3H]mesulergine. The note with it: ligand 10 μM, HEK293 cells. How it is done: HEK293 cells and CHO cells were used in the radioligand binding assay while tsA-201 cells were used in the electrophysiological study. Human CB2, human 5-HT2A, rat 5-HT2C used in the binding studies were cloned into pcDNA5.0FRT and cell lines were made using the FlpIn system from Invitrogen. tsA-201 cell culture and transient calcium channel transfection were performed as described previously. In brief, tsA-201 cells were transfected using the calcium phosphate method. Cav3.1, 3.2 and 3.3 α1 subunits were transfected individually with yellow fluorescent protein as a transfection marker.
Radioligand binding data were obtained using National Institute of Mental Health's Psychoactive Drug Screening Program (NIMH/PDSP) using the same protocol described for CB1 and CB2 binding experiments. Transfected HEK293 (human 5-HT2A or rat 5-HT2C) cells were used. The radioligands were [^3H]ketanserin (0.5 nM) and [^3H]mesulergine (0.5 nM) for respectively 5-HT2A and 5-HT2C experiments. Non-specific binding was determined in the presence of 10 μM chlorpromazine for both 5-HT2A and 5-HT2C binding experiments. Cells were harvested and homogenized in 50 mM Tris HCl, 10 mM MgCl2, 0.1 mM EDTA, pH 7.4. Incubation of radioreceptor binding assay mixtures was 1.5 hours at room temperature in the dark.

The target in a further assay is T2, Rat CB1 (Rattus norvegicus, UniProt P20272).
T2 construct: membrane fractions prepared from rat brain homogenate expressing CB1 receptor; from tissue; host or cells: rat brain homogenate
Briefly: Radioligand competitive binding, [3H]CP55940, rat brain homogenate. The following applies: for Rat CB1 (%) primary radioligand competitive binding: ligand 10 μM, rat brain homogenates. How it is done: CB1 and CB2 radioligand binding data were obtained using National Institute of Mental Health (NIMH) Psychoactive Drug Screening Program (PDSP) resources as described earlier. Compounds were screened in a competitive binding experiment using, respectively, membrane fractions prepared from rat brain homogenate expressing CB1 receptor and HEK293 cells expressing the human CB2 receptor. Experiments were conducted at a range of different concentrations and in duplicate. The competition binding experiment for CB1 and CB2 was performed in 96 well plates containing Standard Binding Buffer (50 mM Tris HCl, 1 mM EDTA, 3 mM MgCl2, 5 mg/ml fatty acid-free BSA, pH 7.4). The radioligand was [^3H]CP55940, and the reference compound was CP55940. A solution of the compound to be tested was prepared as a 1 mg/ml stock in DMSO and then diluted in Standard Binding Buffer by serial dilution. Radioligand was diluted to five times the assay concentration in Standard Binding Buffer. Aliquots (50 μl) of radioligand were dispensed into the wells of a 96-well plate containing 100 μl of Standard Binding Buffer. Then, duplicate 50-μl aliquots of the test and reference compound dilutions were added. Finally, crude membrane fractions of cells were resuspended in 3 ml of chilled Standard Binding Buffer and homogenized by several passages through a 26 gauge needle, then 50 μl were dispensed into each well. The 250-μl reactions were incubated at room temperature for 1.5 hours, and then harvested by rapid filtration onto Whatman GF/B glass fiber filters pre-soaked with 0.3% polyethyleneimine using a 96-well Brandel harverster. Four rapid 500-μl washes were performed. Filters were placed in 6-ml scintillation tubes and allowed to dry overnight. Bound radioactivity was harvested onto 0.3% polyethyleneimine-treated, 96-well filter mats using a 96-well Filtermate harvester. The filter mats were dried, then scintillant was melted onto the filters and the radioactivity retained on the filters counted in a Microbeta scintillation counter. Raw data (dpm) representing total radioligand binding (i.e., specific + non-specific binding) were plotted as a function of the logarithm of the molar concentration of the competitor (i.e., test or reference compound). Non-linear regression of the normalized (i.e., percent radioligand binding compared to that observed in the absence of test or reference compound) raw data was performed in Prism 4.0 (GraphPad Software) using the built-in three parameter logistic model describing ligand competition binding to radioligand-labeled sites: y = bottom + [(top-bottom)/(1 + 10 × -logIC50)] where bottom equals the residual radioligand binding measured in the presence of 10 μM reference compound (i.e., non-specific binding) and top equals the total radioligand binding observed in the absence of competitor. The log IC50 (i.e., the log of the ligand concentration that reduces radioligand binding by 50%) is thus estimated from the data and used to obtain the Ki by applying the Cheng-Prusoff approximation: Ki = IC50/(1 + [ligand]/KD) where [ligand] equals the assay radioligand concentration and KD equals the affinity constant of the radioligand for the target receptor.

Like-named read-outs stand apart in the source and are kept apart here.

T2 sequence (P20272 whole entry): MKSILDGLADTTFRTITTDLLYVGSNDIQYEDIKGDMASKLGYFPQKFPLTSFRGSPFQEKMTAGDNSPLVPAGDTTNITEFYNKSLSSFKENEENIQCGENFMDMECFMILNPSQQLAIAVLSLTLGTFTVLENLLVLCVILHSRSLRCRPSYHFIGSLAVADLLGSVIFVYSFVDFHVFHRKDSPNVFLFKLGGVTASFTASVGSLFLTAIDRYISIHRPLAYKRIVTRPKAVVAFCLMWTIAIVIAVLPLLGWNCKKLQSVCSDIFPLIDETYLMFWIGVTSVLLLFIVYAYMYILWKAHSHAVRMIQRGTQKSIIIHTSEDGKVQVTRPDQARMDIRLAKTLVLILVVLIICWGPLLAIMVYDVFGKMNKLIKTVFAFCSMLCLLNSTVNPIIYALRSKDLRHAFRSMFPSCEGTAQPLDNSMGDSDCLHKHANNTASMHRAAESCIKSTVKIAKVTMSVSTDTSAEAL
Chain of Human CB2 (P34972 whole entry): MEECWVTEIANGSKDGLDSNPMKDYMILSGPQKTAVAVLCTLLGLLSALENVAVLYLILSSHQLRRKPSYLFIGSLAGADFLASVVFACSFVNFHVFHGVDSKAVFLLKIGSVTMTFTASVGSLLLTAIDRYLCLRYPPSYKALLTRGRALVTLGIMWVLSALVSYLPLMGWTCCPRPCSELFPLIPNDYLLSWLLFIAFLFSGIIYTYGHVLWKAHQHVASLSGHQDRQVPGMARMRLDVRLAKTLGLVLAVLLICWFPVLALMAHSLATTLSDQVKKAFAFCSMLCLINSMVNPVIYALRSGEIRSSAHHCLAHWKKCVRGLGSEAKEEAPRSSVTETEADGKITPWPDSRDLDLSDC

One may read the EC50 as the concentration that produces a half-maximal response. A lower EC50 goes with greater potency. As usually defined, the Emax is the size of the effect at its maximum, as opposed to the concentration needed. One may read the Ki as the equilibrium dissociation constant of an inhibitor or competing ligand from its target. Consider `CCCCCn1c2ccc(C(=O)N3CCCCC3)cc2c2ccc(OC)cc21` [NMP-4], for which, on Human CB2, a half-maximal effect (EC50) was put at 9.8 ± 0.3 nM and the Emax is -76.4%. Besides, the “Rat 5-HT2C (%) primary radioligand competitive binding” value at rat 5-HT2C was -9.3%. For the same compound, on Rat CB1 (NA: not active at 1 μM, read-out: Mean Ki Rat CB1), the inhibition constant Ki worked out at 12.8 ± 1.8 nM. For the same compound, the “Rat CB1 (%) primary radioligand competitive binding” value on Rat CB1 is given as 99.3%.
Take `CCCCCn1c2c(c3ccc(OC)cc31)CN(C(=O)c1ccccc1)CC2` [NMP-144]: on Human CB2, the EC50 stood at 35.7 ± 13.9 nM and the Emax is -48.1%. Also, on rat 5-HT2C, the “Rat 5-HT2C (%) primary radioligand competitive binding” value is 13%. At Rat CB1, the Ki was determined as 1140 ± 264 nM and the “Rat CB1 (%) primary radioligand competitive binding” value was 67.4%.
